Measurements taken from patent publication US6350778B1, “Cinnamoylaminoalkyl-substituted benzenesulfonamide derivatives, processes for their preparation, their use, and pharmaceutical preparations comprising them” (Aventis Pharma Deutschland GmbH, priority 1999, dated 2002).
Values joined by “and” are separate entries in the source; they are usually repeats but may differ in a detail not shown here. Equal values may be shown once. Each block holds one compound with its values, some of them ahead of it.

What was measured:
[1] = test system: chloroform-induced ventricular fibrillation in the mouse; assay: Chloroform-induced ventricular fibrillation in the mouse (action in the case of vagal dysfunction); type: in vivo; conditions: for Fibrillation ratio (in %): 3 mg/kg i.p., chloroform anesthesia 30 min later, untreated control 100%
Text: Chloroform-induced ventricular fibrillation in the mouse (action in the case of vagal dysfunction) A hypofunction of the vagal nervous system leads to a hyperfunction of the sympathetic nervous system. Damages to health which result from an imbalance of the autonomic nervous system if the dysfunction relates to the heart, include weakening of the myocardial contractile force and fatal cardiac arrhythmias such as ventricular fibrillation. The action of the test substances was investigated in the model of chloroform-induced ventricular fibrillation in the mouse (see J. W. Lawson, “Antiarrhythmic activity of some isoquinoline derivatives determined by a rapid screening procedure in the mouse,” J. Pharmacol. Exp. Ther. 160 (1968) 22). […] As soon as respiratory arrest had occurred under deep anesthesia (toxic anesthesia stage), the thorax of the animal was opened with a pair of scissors and the heartbeat was visually inspected. It can be detected at a glance here whether the heart is beating, fibrillating, or has stopped. The respiratory arrest induced by chloroform leads, via absolute anoxia (oxygen deficiency) in combination with a direct stimulating action of chloroform on the sympathetic nervous system, to a strong stimulation of the sympathetic nervous system which in turn leads, in combination with the energy deficiency produced in the heart by oxygen deficiency, to the fatal arrhythmia, ventricular fibrillation. […] The percentage proportion of the mice having ventricular fibrillation in the individual test groups (with n animals) is indicated as the fibrillation ratio. The following fibrillation ratios were determined. […] The experiment is carried out here as described above. […] After a further 15 min, the animals were anesthetized with chloroform and the fibrillation ratio was determined.

[2] = test system: papillary muscle of the guinea pig; assay: Action potential duration (APD90) in the papillary muscle of the guinea pig, shortened by rilmakalim (HOE 234); type: cell-based; conditions: starting values 185-193 ms; for APD90 + HOE 234, 30 min, then + test substance, 60 min: test substance 2 μmol/l added after 30 min rilmakalim (HOE 234) 1 μg/ml, recorded after a further 60 min
Text: Action potential duration in the papillary muscle of the guinea pig
ATP deficiency states, such as are observed during ischemia in the cardiac muscle cell, lead to a shortening of the action potential duration. They are regarded as one of the causes of so-called reentry arrhythmias, which can cause sudden cardiac death. The opening of ATP-sensitive potassium channels by the lowering of the ATP level is regarded as causing this (ATP=adenosine triphosphate). For the measurement of the action potential in the papillary muscle of the guinea pig a standard microelectrode technique was employed.
Guinea pigs of both sexes were killed by a blow to the head, the hearts were removed, and the papillary muscles were separated out and suspended in an organ bath. The organ bath was irrigated with Ringer's solution (136 mmol/l of NaCl, 3.3 mmol/l of KCl, 2.5 mmol/l of CaCl2, 1.2 mmol/l of KH2PO4, 1.1 mmol/l of MgSO4, 5.0 mmol/l of glucose, and 10.0 mmol/l of N-(2-hydroxyethyl)piperazine-N′-(2-ethanesulfonic acid) (HEPES), pH adjusted to 7.4 with NaOH) and aerated with 100% oxygen at a temperature of 37° C. The muscle was stimulated by means of an electrode using square-wave impulses of 1 V and 1 ms duration and a frequency of 1 Hz. The action potential was derived and recorded by means of a glass microelectrode inserted intracellularly, which was filled with 3 mol/l of KCl solution. The substance to be tested was added to the Ringer's solution in a concentration of 2 μmol/l. The action potential was amplified using an amplifier from Hugo Sachs (March-Hugstetten, Germany) and stored and analyzed by means of a computer. The duration of the action potential was determined at a degree of repolarization of 90% (APD90). The action potential shortening was produced by addition of a solution of the potassium channel opener Rilmakalim (HOE 234) (W. Linz et al., Arzneimittelforschung/Drug Research, 42 (II) (1992) 1180-1185) (rilmakalim concentration 1 μg/ml). 30 minutes after the administration of rilmakalim, the action potential duration was recorded. The test substance was then added and the action potential duration, which was prolonged again, was recorded after a further 60 minutes. The test substances were added to the bath solution as stock solutions in propanediol.
The following APD90 values (in milliseconds) were recorded.

[3] = atropine 1 mg/kg i.v., chloroform 15 min after administration, n = 10
[4] = Example 8 10 mg/kg i.p., chloroform 30 min after administration, n = 20

Compound: CN1[C@@H]2CC[C@H]1C[C@@H](OC(=O)C(CO)c1ccccc1)C2 (some centres unmarked) [Atropine, atropine, reference compound]
Fibrillation ratio [1, 3]: 100%
Number of animals with fibrillation [1, 3]: 10
Number of animals with regular heart action [1, 3]: 0

Compound: CNC(=S)NS(=O)(=O)c1cc(CCNC(=O)/C=C/c2ccc(OC)cc2OC)ccc1OC [Example 1, 1-(5-(2-(2,4-Dimethoxycinnamoylamino)ethyl)-2-methoxyphenysulfonyl)-3-methylthiourea]
APD90 + HOE 234, 30 min, then + test substance, 60 min [2]: 177 milliseconds
Fibrillation ratio (in %) ([1]; n = 10): 60%

melting point: 210 °C
Compound: CNC(=O)NS(=O)(=O)c1cc(CCNC(=O)/C=C/c2ccc(OC)cc2OC)ccc1OC [Example 2, 1-(5-(2-(2 ,4-Dimethoxycinnamoylamino)ethyl)-2-methoxyphenylsulfonyl)-3-methylurea]

melting point: 90 °C
Compound: CCNC(=S)NS(=O)(=O)c1cc(CCNC(=O)/C=C/c2ccc(OC)cc2OC)ccc1OC [Example 3, 1-(5-(2-(2,4-Dimethoxycinnamoylamino)ethyl)-2-methoxyphenylsulfonyl)-3-ethylthiourea]

melting point: 96 °C
Compound: CCNC(=O)NS(=O)(=O)c1cc(CCNC(=O)/C=C/c2ccc(OC)cc2OC)ccc1OC [Example 4, 1-(5-(2-(2,4-Dimethoxycinnamoylamino)ethyl)-2-methoxyphenylsulfonyl)-3-ethylurea]

Compound: CNC(=S)NS(=O)(=O)c1cc(CCNC(=O)/C=C/c2ccc(C)cc2C)ccc1OC [Example 5, 1-(5-(2-(2,4-Dimethylcinnamoylamino)ethyl)-2-methoxyphenylsulfonyl)-3-methylthiourea]
Fibrillation ratio (in %) ([1]; n = 10): 70%

melting point: 227 to 229 °C
Compound: CNC(=O)NS(=O)(=O)c1cc(CCNC(=O)/C=C/c2ccc(C)cc2C)ccc1OC [Example 6, 1-(5-(2-(2,4-Dimethylcinnamoylamino)ethyl)-2-methoxyphenylsulfonyl)-3-methylurea]

Compound: CNC(=S)NS(=O)(=O)c1cc(CCNC(=O)/C=C/c2ccc(OC)cc2OC)ccc1OCCOC [Example 7, 1-(5-(2-(2,4-Dimethoxycinnamoylamino)ethyl)-2-(2-methoxyethoxy)phenylsulfonyl)-3-methylthiourea]
APD90 + HOE 234, 30 min, then + test substance, 60 min [2]: 175 milliseconds

Compound: CNC(=O)NS(=O)(=O)c1cc(CCNC(=O)/C=C/c2ccc(OC)cc2OC)ccc1OCCOC [Example 8, 1-(5-(2-(2,4-Dimethoxycinnamoylamino)ethyl)-2-(2-methoxyethoxy)phenysulfonyl)-3-methylurea]
APD90 + HOE 234, 30 min, then + test substance, 60 min [2]: 92 milliseconds
Fibrillation ratio (in %) ([1]; n = 10): 60%
Number of animals with fibrillation [1, 4]: 9
Number of animals with regular heart action [1, 4]: 11
Fibrillation ratio ([1]; Example 8 10 mg/kg i.p., chloroform 30 min after administration, n = 20, p < 0.0001 vs atropine, p = 0.024 vs combination): 45% ^1), 2)

Compound: CCNC(=S)NS(=O)(=O)c1cc(CCNC(=O)/C=C/c2ccc(OC)cc2OC)ccc1OCCOC [Example 9, 1-(5-(2-(2,4-Dimethoxycinnamoylamino)ethyl)-2-(2-methoxyethoxy)phenylsulfonyl)-3-ethylthiourea]
Fibrillation ratio (in %) ([1]; n = 10): 63%

Compound: CNC(=S)NS(=O)(=O)c1cc(CCNC(=O)/C=C/c2ccccc2)ccc1OC [Example 12, 1-(5-(2-(Cinnamoylamino)ethyl)-2-methoxyphenylsulfonyl)-3-methylthiourea]
Fibrillation ratio (in %) ([1]; n = 10): 63%

melting point: 150 °C
Compound: CNC(=S)NS(=O)(=O)c1cc(CCNC(=O)/C=C/c2ccccc2)ccc1OCCOC [Example 17, 1-(5-(2-(Cinnamoylamino)ethyl)-2-(2-methoxyethoxy)phenylsulfonyl)-3-methylthiourea]

melting point: 65 °C
Compound: CNC(=O)NS(=O)(=O)c1cc(CCNC(=O)/C=C/c2ccccc2)ccc1OCCOC [Example 19, 1-(5-(2-(Cinnamoylamino)ethyl)-2-(2-methoxyethoxy)phenylsulfonyl)-3-methylurea]

melting point: 188 to 190 °C
Compound: CNC(=S)NS(=O)(=O)c1cc(CCNC(=O)/C=C/c2cc(Cl)ccc2OC)ccc1OC [Example 21, 1-(5-(2-(5-Chloro-2-methoxycinnamoylamino)ethyl)-2-methoxyphenylsulfonyl)-3-methylthiourea]

melting point: 171 to 175 °C
Compound: C=CCOc1ccc(CCNC(=O)/C=C/c2ccc(OC)cc2OC)cc1S(=O)(=O)NC(=S)NC [Example 23, 1-(2-Allyloxy-5-(2-(2,4-dimethoxycinnamoylamino)ethyl)phenylsulfonyl)-3-methylthiourea]

melting point: 76 to 78 °C
Compound: CNC(=S)NS(=O)(=O)c1cc(CCNC(=O)/C=C/c2ccc(Cl)cc2Cl)ccc1OCCOC [Example 24]

melting point: 73 °C
Compound: CNC(=S)NS(=O)(=O)c1cc(CCNC(=O)/C=C/c2cc(C(C)(C)C)ccc2OC)ccc1OCCOC [Example 25, 1-(5-(2-(5-tert-Butyl-2-methoxycinnamoylamino)ethyl)-2-(2-methoxyethoxy)phenyl-sulfonyl)-3-methylthiourea]

melting point: 116 °C
Compound: CNC(=S)NS(=O)(=O)c1cc(CCNC(=O)/C=C/c2ccc(C)cc2C)ccc1OCCOC [Example 26, 1-(5-(2-(2,4-Dimethylcinnamoylamino)ethyl)-2-(2-methoxyethoxy)phenylsufonyl)-3-methylthiourea]

Compound: CC1(C)Oc2ccc(S(=O)(=O)c3ccccc3)cc2[C@@H](N2CCCC2=O)[C@@H]1O [HOE 234, Rilmakalim, reference compound]
APD90 + HOE 234, 30 min ([2]; potassium channel opener rilmakalim (HOE 234) 1 μg/ml alone, 30 min, before test substance, 37° C., 1 Hz): 24 milliseconds and 34 milliseconds
